From the CheMixHub ionic liquid set

Experiment: xn = mol fraction of the nth substance listed

CCCC[n+]1ccn(C)c1.[Br-] + COCCO
viscosity [mPa·s], 100 kPa
Details | 298.15 K | 303.15 K | 308.15 K | 313.15 K
x1 = 0.4 | – | – | 43.9 | 28
x1 = 0.5 | – | 101 | – | 40.3
x1 = 0.7002 | 350 | – | – | 75

CCCC[n+]1ccn(C)c1.[Br-] + [Cl-].[Li+] + O
298.15 K, 100 kPa
Details | viscosity [mPa·s]
x2 = 0, x3 = 0.9487 | 2.21
x2 = 0.008492, x3 = 0.9402 | 2.41
x2 = 0.01695, x3 = 0.9318 | 2.56
x2 = 0.02496, x3 = 0.9237 | 2.73
x2 = 0.02656, x3 = 0.9221 | 2.81
x2 = 0.03322, x3 = 0.9155 | 3
x2 = 0.0408, x3 = 0.9079 | 3.21

CCCC[N+](CCCC)(CCCC)CCCC.[Cl-] + CC(C)[C@H](N)C(=O)O
100 kPa
Details | electrical conductivity, 313.15 K [S/m] | electrical conductivity, 323.15 K [S/m] | electrical conductivity, 333.15 K [S/m] | electrical conductivity, 343.15 K [S/m] | electrical conductivity, 353.15 K [S/m] | viscosity, 313.15 K [mPa·s] | viscosity, 323.15 K [mPa·s] | viscosity, 333.15 K [mPa·s] | viscosity, 343.15 K [mPa·s] | viscosity, 353.15 K [mPa·s]
x1 = 0.9 | 0.041 | 0.059 | 0.082 | 0.0989 | 0.123 | 800 | 460 | 258 | 145 | 82
x1 = 0.9091 | 0.029 | 0.041 | 0.055 | 0.0751 | 0.095 | 900 | 510 | 256 | 146 | 82
x1 = 0.9167 | 0.038 | 0.05 | 0.07 | 0.0901 | 0.116 | 587 | 313 | 196 | 105 | 63

CCCC[N+](CCCC)(CCCC)CCCC.[Cl-] + CC(C)C[C@H](N)C(=O)O
100 kPa
Details | electrical conductivity, 313.15 K [S/m] | electrical conductivity, 323.15 K [S/m] | electrical conductivity, 333.15 K [S/m] | electrical conductivity, 343.15 K [S/m] | electrical conductivity, 353.15 K [S/m] | viscosity, 313.15 K [mPa·s] | viscosity, 323.15 K [mPa·s] | viscosity, 333.15 K [mPa·s] | viscosity, 343.15 K [mPa·s] | viscosity, 353.15 K [mPa·s]
x1 = 0.8889 | 0.0188 | 0.0377 | 0.0631 | 0.0885 | 0.12 | 1070 | 444 | 219 | 123 | 76
x1 = 0.9 | 0.0149 | 0.027 | 0.0441 | 0.068 | 0.0891 | 940 | 517 | 259 | 146 | 88.1
x1 = 0.9091 | 0.0194 | 0.0302 | 0.054 | 0.0761 | 0.0971 | 890 | 410 | 197 | 114 | 99

COCCn1cc[n+](C)c1.N#C[S-] + O=C1CCCO1
101 kPa
Details | electrical conductivity [S/m] | viscosity [mPa·s]
288.15 K, x1 = 0.7036 | 0.526 | 34.8
288.15 K, x1 = 1 | 0.223 | 86
293.15 K, x1 = 0.8038 | 0.505 | 39.2
298.15 K, x1 = 0.3001 | 1.63 | 4.18
298.15 K, x1 = 1 | 0.41 | 53
303.15 K, x1 = 0.3001 | 1.8 | 3.68
308.15 K, x1 = 0.6015 | 1.36 | 9.6
308.15 K, x1 = 0.9012 | 0.791 | 27.2
313.15 K, x1 = 0.1027 | 1.99 | 1.82
313.15 K, x1 = 0.5006 | 1.79 | 5.6
313.15 K, x1 = 0.7036 | 1.33 | 11.8
318.15 K, x1 = 0.3001 | 2.44 | 2.59
318.15 K, x1 = 0.4001 | 2.25 | 3.46
323.15 K, x1 = 0.1999 | 2.68 | 1.85
323.15 K, x1 = 0.4001 | 2.48 | 3.1
323.15 K, x1 = 0.5006 | 2.25 | 4.26
323.15 K, x1 = 0.7036 | 1.75 | 8.8
328.15 K, x1 = 0.9012 | 1.52 | 13.9
333.15 K, x1 = 0.1027 | – | 1.3
338.15 K, x1 = 0.6015 | 2.74 | 4.26
338.15 K, x1 = 0.7036 | 2.46 | 6
343.15 K, x1 = 0.5006 | 3.3 | 2.71
343.15 K, x1 = 0.7036 | 2.7 | 5.4
